Assay results as given in paper PMC7281206, “Cysteine Cathepsins Inhibition Affects Their Expression and Human Renal Cancer Cell Phenotype” (Cancers, 2020).
*: point of attachment. CH2F = FC*

How the values were obtained:
E-cadherin in A498 cells = assay: E-cadherin protein expression (western blot), A498; type: cell-based, human; conditions: first 48 h
Description: These properties could be the result of the modulation of the effectors controlling EMT, as previously shown in other tumor models. To test this hypothesis, the cells were treated with the inhibitors for 24, 48, and 72 h by changing the media every day, and they were tested for E-cadherin and SNAIL1 expression (Figure 6; detail information of western blots can be seen in Supplementary Figure S7). Figure 6 Effects of the peptides on E-cadherin and SNAIL1 protein expression: (a,b) protein expression of E-cadherin and SNAIL1 in 769-P and (c,d) A498 cells after 24, 48, and 72 h of treatment with the peptides. Data are represented as mean ± SD of at least three replicates. Significance was calculated through one-way ANOVA, followed by Dunnet’s test. Cells were seeded in RPMI containing 10% FBS and cultured for 24 h. Next, 30 µM of inhibitors were added to the culture medium and incubated for 24, 48, and 72 h. Control cells were treated with 0.01% DMSO. At all time points the samples were lysed in 50 mM Tri-HCl (pH 8.0), 100 mM NaCl, 0.5% NP-40, 1% Triton X-100, 1× protease inhibitor cocktail (ThermoFisher, Waltham, MA, USA). The 50 µg of protein lysates were separated by electrophoresis on a 12% SDS-PAGE gel and transferred to the PFDF membranes. […] After an additional wash (three times with PBS), reactive bands were detected by chemiluminescence (Bio-Rad, Irvine, CA, USA). […]

769-P cells = assay: Cell viability/proliferation (MTT), 769-P; type: cell-based, human; conditions: 2.5–250 μM; for Cell viability: 72 h; for Effect on cell proliferation: within 48 h
Description: Figure 3 The effect of the peptide inhibitors on human 769-P and A498 renal cancer cell proliferation and proteolytic activity. (a) 769-P and (b) A498 cells were treated with increasing doses of Ac-PLVE-FMK (red bars) and Ac-VLPE-FMK (blue bars) (2.5–250 μM). Cell proliferation was measured after 24, 48, and 72 h via MTT (3-(4,5-dimethylthiazol-2-yl)-2,5-diphenyltetrazolium bromide) assay. Data represent the mean (±S.D.) of at least three independent experiments, each performed in triplicate. (c) Fluorescence microscopy evaluation and quantification of the cell proteolytic activity in 769-P and (d) A498 cells towards the fluorogenic substrate Ac-PLVQ-AMC in the absence or presence of Ac-PLVE-FMK and Ac-VLPE-FMK. The cells were seeded in a 96-well plate and after exposure to the peptides for 30 min prior incubation with the fluorescent substrate Ac-PLVQ-AMC for 10 min. Data are expressed as mean (±S.D.), and significance was calculated through one-way ANOVA followed by Dunnet’s test. * = p < 0.05, ** = p < 0.01, *** = p < 0.001.
The human renal cancer cell line lines […], A498 were obtained from Dr. Vadim Pokrovsky (purchased from American Type Culture Collection). The cells were cultured in RPMI 1640, supplemented with 10% fetal bovine serum and 1% mixture of antibiotics penicillin-streptomycin (all from Gibco, Waltham, MA, USA) at 5% CO2 and 37 °C in a humidified chamber. Cells were grown to confluence and harvested by trypsinization, using a 0.25 mg/mL trypsin/EDTA solution (ThermoFisher, Carlsbad, CA, USA) and resuspended in the fresh culture medium. Viable cells were enumerated on the Countess II FL Automated Cell Counter (ThermoFisher, Waltham, MA, USA), following Trypan Blue staining. The cell lines were tested for mycoplasma contamination regularly, using the Molecular Probes™ MycoFluor Mycoplasma Detection Kit (ThermoFisher, Waltham, MA, USA).
The cell number was evaluated by counting viable cells using the MTT (3-(4,5-dimethylthiazol-2-yl)-2,5-diphenyltetrazolium bromide) colorimetric assay. A total of 2 × 10^4 cells/well were seeded on independent 96-well plates for each time point (0, 24, 48, and 72 h), with five replicates and treated with two inhibitors (2.5–250 μM). Then, 10 µL of the MTT reagent was added to each well, and cells were incubated for another 5 h. Next, the absorbance value was measured using a CLARIOstar® Plus plate reader (BMG Labtech, Ortenberg, Germany) at 490 nm. Triplicate wells were assayed, and S.D.s were determined.

| Substance | E-cadherin protein expression (E-cadherin in A498 cells) | Cell viability (769-P cells) | Effect on cell proliferation (769-P cells) |
| --- | --- | --- | --- |
| Ac-PLVE-CH2F [Ac-PLVE-FMK] | increased the protein expression of E-cadherin in the first 48 h in both the cell lines | cell viability increased, reaching values not significantly different from the control cells | cytostatic properties on both cell lines only within 48 h of treatment |
| Ac-VLPE-CH2F [Ac-VLPE-FMK] | increased the protein expression of E-cadherin in the first 48 h in both the cell lines | cell viability increased, reaching values not significantly different from the control cells | cytostatic properties on both cell lines only within 48 h of treatment |
